# Measurements: patent US20240228488A1 (TAKEDA PHARMACEUTICAL COMPANY LIMITED, priority 2021, published 2024)
# What was measured:
# plasma kallikrein = biological target: T1, plasma kallikrein (Homo sapiens, UniProt P03952); test: Neat human plasma assay, FXIIa contact pathway-activated, PFR-AMC substrate; type: biochemical; conditions: citrated human plasma 78% final, 10 nM human FXIIa, 100 μM PFR-AMC; read-out: Human Plasma Assay: IC90
# T1 construct: from tissue
# In short: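 Citrated human plasma (78% final) with compound, contact-activated by 10 nM human FXIIa in pKal buffer pH 7.5, with 100 μM PFR-AMC. Fluorescence (360/480 nm) followed 5 min at room temperature; rates versus concentration fitted by 4-parameter equation for IC50/IC90.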
# [1] = biological target: human activated kallikrein enzyme (Homo sapiens, UniProt P03952); test: Plasma kallikrein inhibition, fluorogenic PFR-AMC substrate, 500 pM activated kallikrein format; type: biochemical; conditions: 500 pM activated kallikrein, 300 uM PFR-AMC, 30 min preincubation, 10 min reaction; read-out: Primary Dose Response Assay: Average EC50
# In short: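 Enzyme (500 pM) was preincubated with inhibitor for 30 min at room temperature in 20 mM Tris pH 7.5, 1 mM EDTA, 150 mM NaCl, 0.1% PEG-400 and 0.1% Triton X-100. The reaction was started with 300 uM PFR-AMC, run 10 min, and fluorescence read at 460 nm (380 nm excitation). EC50 derived.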
# T1 sequence (P03952 391-638 limits assumed): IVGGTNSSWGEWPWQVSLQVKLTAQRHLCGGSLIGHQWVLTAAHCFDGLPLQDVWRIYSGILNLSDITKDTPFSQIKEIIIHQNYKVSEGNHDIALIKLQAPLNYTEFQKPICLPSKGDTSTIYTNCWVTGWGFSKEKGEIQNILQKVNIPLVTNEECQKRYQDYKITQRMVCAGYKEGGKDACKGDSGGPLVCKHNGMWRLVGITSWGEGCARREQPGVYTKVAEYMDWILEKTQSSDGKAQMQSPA
# T1 sequence (P03952 20-390 partner limits assumed): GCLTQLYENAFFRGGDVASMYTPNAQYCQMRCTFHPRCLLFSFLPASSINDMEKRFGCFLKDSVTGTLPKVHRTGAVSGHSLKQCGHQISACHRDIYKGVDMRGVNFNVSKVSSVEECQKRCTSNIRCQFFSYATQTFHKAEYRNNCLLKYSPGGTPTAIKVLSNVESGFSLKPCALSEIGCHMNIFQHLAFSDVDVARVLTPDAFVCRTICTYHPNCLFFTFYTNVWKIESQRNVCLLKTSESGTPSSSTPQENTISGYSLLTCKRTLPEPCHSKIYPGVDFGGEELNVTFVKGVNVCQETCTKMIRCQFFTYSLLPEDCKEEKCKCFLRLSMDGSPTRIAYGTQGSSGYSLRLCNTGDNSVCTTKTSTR
# Sequence of human activated kallikrein enzyme (P03952 391-638 limits assumed): as the sequence (P03952 391-638 limits assumed) above
# Sequence of human activated kallikrein enzyme (P03952 20-390 partner limits assumed): as the sequence (P03952 20-390 partner limits assumed) above
Structure (SMILES),IC90 (plasma kallikrein),EC50 [1]
"Cc1ccnc([C@H]2C[C@@H]2C(=O)Nc2cc(NC(C)c3cn4cc(C5CC5)cc(N5CCN(C)C5=O)c4n3)nc(C)n2)n1 (stereo partly drawn) [Example 364, (1S,2S)-N-(6-((1-(6-cyclopropyl-8-(3-methyl-2-oxoimidazolidin-1-yl)imidazo[1,2-a]pyridin-2-yl)ethyl)amino)-2-methylpyrimidin-4-yl)-2-(4-methylpyrimidin-2-yl)cyclopropane-1-carboxamide]",0.4 to 1.5 µM,< 0.001 µM
"N#Cc1cc(C2CC2)cn2cc(CNc3cc(NC(=O)[C@H]4C[C@@H]4c4cccc(Cl)c4)ncn3)nc12 (racemic) [Example 71, rac-(1S*,2S*)-2-(3-chlorophenyl)-N-(6-(((8-cyano-6-cyclopropylimidazo[1,2-a]pyridin-2-yl)methyl)amino)pyrimidin-4-yl)cyclopropane-1-carboxamide]",10 to 48 µM,0.001 to 0.01 µM
"CN1CCN(c2cc(C3CC3)cn3cc(CNc4ccnc(NC(=O)[C@H]5C[C@@H]5c5cccc(Cl)c5)c4)nc23)CC1 [Example 138, (1S,2S)-2-(3-chlorophenyl)-N-(4-(((6-cyclopropyl-8-(4-methylpiperazin-1-yl)imidazo[1,2-a]pyridin-2-yl)methyl)amino)pyridin-2-yl)cyclopropane-1-carboxamide]",< 0.4 µM,< 0.001 µM
"O=C1CN(c2cc(C3CC3)cn3cc(CNc4cc(NC(=O)[C@H]5C[C@@H]5c5cc(Cl)ccn5)ncn4)nc23)C(=O)N1 [Example 395, (1S,2S)-2-(4-chloropyridin-2-yl)-N-(6-(((6-cyclopropyl-8-(2,4-dioxoimidazolidin-1-yl)imidazo[1,2-a]pyridin-2-yl)methyl)amino)pyrimidin-4-yl)cyclopropane-1-carboxamide]",< 0.4 µM,< 0.001 µM
"O=C(Nc1cc(N2C[C@@H](O)C[C@@H]2c2cn3cc(C4CC4)ccc3n2)ncn1)[C@H]1C[C@@H]1c1cccc(Cl)c1 [Example 283, (1S,2S)-2-(3-chlorophenyl)-N-(6-((2R,4S)-2-(6-cyclopropylimidazo[1,2-a]pyridin-2-yl)-4-hydroxypyrrolidin-1-yl)pyrimidin-4-yl)cyclopropane-1-carboxamide]",1.5 to 10 µM,0.001 to 0.01 µM
"Cc1ccnc([C@H]2C[C@@H]2C(=O)Nc2cc(NCc3cn4cc(C5CC5)cc(S(C)(=O)=O)c4n3)ncn2)n1 (single isomer, unassigned) [Example 324]",0.4 to 1.5 µM,< 0.001 µM
"Cc1cc(NCc2cn3cc(C4CC4)ccc3n2)cc(NC(=O)[C@H]2C[C@@H]2c2cc(Cl)ccc2C#N)n1 (racemic) [Example 342, rac-(1S*,2S*)-2-(5-chloro-2-cyanophenyl)-N-(4-(((6-cyclopropylimidazo[1,2-a]pyridin-2-yl)methyl)amino)-6-methylpyridin-2-yl)cyclopropane-1-carboxamide]",1.5 to 10 µM,< 0.001 µM
"O=C(Nc1cc(NCc2cn3cc(C4CC4)cc(CO)c3n2)ccn1)[C@H]1C[C@@H]1c1cccc(Cl)c1 [Example 99, (1S,2S)-2-(3-chlorophenyl)-N-(4-(((6-cyclopropyl-8-(hydroxymethyl)imidazo[1,2-a]pyridin-2-yl)methyl)amino)pyridin-2-yl)cyclopropane-1-carboxamide]",0.4 to 1.5 µM,< 0.001 µM
"Cc1ccnc([C@H]2C[C@@H]2C(=O)Nc2cc(N(C)Cc3cn4cc(C5CC5)cc(N5CC(=O)N(CC(C)(C)O)C5=O)c4n3)ncn2)n1 [Example 368, (1S,2S)-N-(6-(((6-cyclopropyl-8-(3-(2-hydroxy-2-methylpropyl)-2,4-dioxoimidazolidin-1-yl)imidazo[1,2-a]pyridin-2-yl)methyl)(methyl)amino)pyrimidin-4-yl)-2-(4-methylpyrimidin-2-yl)cyclopropane-1-carboxamide]",< 0.4 µM,< 0.001 µM
"O=C(Nc1cc(NCc2cn3cc(C4CC4)cc(N4CCNC4=O)c3n2)ncn1)[C@H]1C[C@@H]1c1cccc(Cl)c1 [Example 309, (1S,2S)-2-(3-chlorophenyl)-N-(6-(((6-cyclopropyl-8-(2-oxoimidazolidin-1-yl)imidazo[1,2-a]pyridin-2-yl)methyl)amino)pyrimidin-4-yl)cyclopropane-1-carboxamide]",1.5 to 10 µM,< 0.001 µM

# Results, then the compound that gave them:
IC90 (plasma kallikrein),EC50 [1],Structure (SMILES)
< 0.4 µM,< 0.001 µM,"CN1CC(c2cc(C3CC3)cn3cc(CNc4cc(NC(=O)[C@H]5C[C@@H]5c5cccc(Cl)c5)ncn4)nc23)C1 [Example I-193, (1S,2S)-2-(3-chlorophenyl)-N-(6-(((6-cyclopropyl-8-(1-methylazetidin-3-yl)imidazo[1,2-a]pyridin-2-yl)methyl)amino)pyrimidin-4-yl)cyclopropane-1-carboxamide]"
< 0.4 µM,< 0.001 µM,"Cc1ccnc([C@H]2C[C@@H]2C(=O)Nc2cc(NCc3cn4cc(C5CC5)cc(N5CC(=O)N(C)C5=O)c4n3)ncn2)n1 (racemic) [Example I-259, rac-(1S*,2S*)—N-(6-(((6-cyclopropyl-8-(3-methyl-2,4-dioxoimidazolidin-1-yl)imidazo[1,2-a]pyridin-2-yl)methyl)amino)pyrimidin-4-yl)-2-(4-methylpyrimidin-2-yl)cyclopropane-1-carboxamide]"
< 0.4 µM,< 0.001 µM,"Cc1ccnc([C@H]2C[C@@H]2C(=O)Nc2cc(NCc3cn4cc(C5CC5)cc(N5CC(=O)N(C)C5=O)c4n3)ncn2)n1 (single isomer, unassigned) [Example I-260]"
< 0.4 µM,< 0.001 µM,"Cc1ccnc([C@H]2C[C@@H]2C(=O)Nc2cc(OCc3cn4cc(C5CC5)cc(N5CC(=O)N(C)C5=O)c4n3)cnn2)n1 [Example 558, (1S,2S)-N-(5-((6-cyclopropyl-8-(3-methyl-2,4-dioxoimidazolidin-1-yl)imidazo[1,2-a]pyridin-2-yl)methoxy)pyridazin-3-yl)-2-(4-methylpyrimidin-2-yl)cyclopropane-1-carboxamide]"
0.4 to 1.5 µM,0.001 to 0.01 µM,"Cc1nc([C@H]2C[C@@H]2C(=O)Nc2cc(NCc3cn4cc(C5CC5)cc(N5CC(=O)N(C)C5=O)c4n3)ncn2)cs1 (racemic) [Example 493, rac-(1S*,2S*)-N-(6-(((6-cyclopropyl-8-(3-methyl-2,4-dioxoimidazolidin-1-yl)imidazo[1,2-a]pyridin-2-yl)methyl)amino)pyrimidin-4-yl)-2-(2-methylthiazol-4-yl)cyclopropane-1-carboxamide]"
0.4 to 1.5 µM,< 0.001 µM,"Cc1ccnc([C@H]2C[C@@H]2C(=O)Nc2cc(NC(C)c3cn4cc(C5CC5)cc(N5CC(=O)N(C)C5=O)c4n3)nc(C)n2)n1 (stereo partly drawn) [Example 454, (1S,2S)—N-(6-((1-(6-cyclopropyl-8-(3-methyl-2,4-dioxoimidazolidin-1-yl)imidazo[1,2-a]pyridin-2-yl)ethyl)amino)-2-methylpyrimidin-4-yl)-2-(4-methylpyrimidin-2-yl)cyclopropane-1-carboxamide]"
< 0.4 µM,< 0.001 µM,"CN1CC(O)(c2cc(C3CC3)cn3cc(CNc4ccnc(NC(=O)[C@H]5C[C@@H]5c5cccc(Cl)c5)c4)nc23)C1 [Example 608, (1S,2S)-2-(3-chlorophenyl)-N-(4-(((6-cyclopropyl-8-(3-hydroxy-1-methylazetidin-3-yl)imidazo[1,2-a]pyridin-2-yl)methyl)amino)pyridin-2-yl)cyclopropane-1-carboxamide]"
1.5 to 10 µM,< 0.001 µM,"Cc1ccnc([C@H]2C[C@@H]2C(=O)Nc2cc(N(C)Cc3cn4cc(C5CC5)cc(S(C)(=O)=O)c4n3)nc(C)n2)n1 [Example I-161, (1S,2S)-N-(6-(((6-cyclopropyl-8-(methylsulfonyl)imidazo[1,2-a]pyridin-2-yl)methyl)(methyl)amino)-2-methylpyrimidin-4-yl)-2-(4-methylpyrimidin-2-yl)cyclopropane-1-carboxamide]"
0.4 to 1.5 µM,< 0.001 µM,"Cc1ccnc([C@H]2C[C@@H]2C(=O)Nc2cc(NCc3cn4cc(C5CC5)cc(N5CC(=O)N(C)C5=O)c4n3)nc(C(F)(F)F)n2)n1 (racemic) [Example 501, rac-(1S*,2S*)-N-(6-(((6-cyclopropyl-8-(3-methyl-2,4-dioxoimidazolidin-1-yl)imidazo[1,2-a]pyridin-2-yl)methyl)amino)-2-(trifluoromethyl)pyrimidin-4-yl)-2-(4-methylpyrimidin-2-yl)cyclopropane-1-carboxamide]"
< 0.4 µM,< 0.001 µM,"Cc1ccnc([C@H]2C[C@@H]2C(=O)Nc2cc(OCc3cn4cc(C5CC5)cc(N5CC(=O)N(C)C5=O)c4n3)nc(OCCN(C)C)n2)n1 [Example 563, (1S,2S)—N-(6-((6-cyclopropyl-8-(3-methyl-2,4-dioxoimidazolidin-1-yl)imidazo[1,2-a]pyridin-2-yl)methoxy)-2-(2-(dimethylamino)ethoxy)pyrimidin-4-yl)-2-(4-methylpyrimidin-2-yl)cyclopropane-1-carboxamide]"
10 to 48 µM,0.001 to 0.01 µM,"O=C(Nc1nsc(NCc2cn3cc(C4CC4)ccc3n2)n1)[C@H]1C[C@@H]1c1cccc(Cl)c1 [Example 610, (1S,2S)-2-(3-chlorophenyl)-N-(5-(((6-cyclopropylimidazo[1,2-a]pyridin-2-yl)methyl)amino)-1,2,4-thiadiazol-3-yl)cyclopropane-1-carboxamide]"
1.5 to 10 µM,< 0.001 µM,"O=C(Nc1cc(NCc2cn3cc(C4CC4)cc(N4CCN(C5CC5)CC4)c3n2)ccn1)[C@H]1C[C@@H]1c1cccc(Cl)c1 [Example I-232, (1S,2S)-2-(3-chlorophenyl)-N-(4-(((6-cyclopropyl-8-(4-cyclopropylpiperazin-1-yl)imidazo[1,2-a]pyridin-2-yl)methyl)amino)pyridin-2-yl)cyclopropane-1-carboxamide]"
